Measurements taken from patent publication US20260028355A1, “PROTEOLYSIS TARGETING CHIMERA (PROTAC) COMPOSITIONS USING UBIQUITIN CONJUGATING ENZYME LIGANDS” (Berg LLC, priority 2022, published 2026).

Tests used:
UBE2K = molecular target: T1, UBE2K (Homo sapiens, UniProt P61086); assay: UBE2K dissociation constant (Kd) by surface plasmon resonance (Biacore S200); type: binding; details: SPR, steady state fitting; immobilized biotinylated UBE2K-Ub complex and UBE2K wild type
T1 sequence (P61086 1-200): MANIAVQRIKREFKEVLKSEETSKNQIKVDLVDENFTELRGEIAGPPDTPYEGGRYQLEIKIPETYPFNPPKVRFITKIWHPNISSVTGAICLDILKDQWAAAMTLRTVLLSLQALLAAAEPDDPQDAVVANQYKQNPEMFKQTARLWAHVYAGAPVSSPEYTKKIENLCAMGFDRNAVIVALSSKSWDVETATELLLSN
Procedure: UBE2K Dissociation Constant (Kd) of E2-binder Compound 1
UBE2K Ligand binding to mono-Ub UBE2K and UBE2K was measured by Surface plasma resonance using a Biacore SPR S200 instrument. The proteins and ligands were prepared for experimental measurement as described below.
Avi tagged proteins were biotinylated and were immobilized on a Series S/Sensor Chip SA. Proteins were immobilized based on their molar weight as follows -Biotinylated Avi peptide (1000 μM), Biotinylated UBE2K-Ub Complex (12 μM) and Biotinylated UBE2K Wild Type (3 μM). Proteins were immobilized using a buffer comprised of 1X HBS-N Buffer+0.05% Tween 20 (250 mL). A stock of Compound 1 was prepared in affinity buffer comprised of 1% DMSO, 1×PBS-P+Buffer. Further dilution of stock were prepared in 0% DMSO, 1×PBS-P+Buffer or 3% DMSO, 1×PBS-P+Buffer and were used as running buffers. Compound 1 was prepared as 2 mM or 750 μM stocks in the buffers described above. Titration was performed using the Liquid handler/TECAN EVO (WALL-E) as follows. 1 or 2, 96 deep well plates (1.2 mL) were used for performing titrations-Aliquoted 3% DMSO, 1×PBS-P+buffer. 1:2 dilution was performed by WALL-E (250 μL+250 μL) for the rest of titrations till 3.12 μM. The titrations of Compound 1 was then transferred to 384 deep well plate in duplicates side-by-side (125 μL) each. […]

UBE2K-Ub = assay: E2 binding capacity of PROTACs (FIG. 1)
Text: UBE2K binder Compound 1 was used as a precursor to generate PROTAC Compounds 2, 6, 7, and 9. See experimental section above. Each of these PROTACs were first tested for their ability to bind the E2 enzyme UBE2K.

BRD4 = molecular target: T2, BRD4 (Homo sapiens, UniProt O60885); assay: Dose dependent degradation of BRD4 in HeLa cells (FIG. 2); type: cell-based
T2 construct: dose dependent degradation of BRD4 in HeLa cells; endogenous in cells; host or cells: HeLa
Text: FIG. 2 illustrates the dose dependent degradation of BRD4 in HeLa cells using E2 binding PROTACS based on the present disclosure.
Dose Dependent Degradation of BRD4 in HeLa Cells
Compounds 6, 7, and 9 were then investigated for their ability to degrade BRD4.

loss of BRD4 (BRD4) | Compound | further results
 | O=C(NCc1cc2c3ccccc3nc(S)n2n1)c1ccccc1OC(F)(F)F [Compound 1, N-((5-thioxo-5,6-dihydropyrazolo[1,5-c]quinazolin-2-yl)methyl)-2-(trifluoromethoxy)benzamide] | Kd (UBE2K): 2110 nM
 | Cc1sc2c(c1C)C(c1ccc(Cl)cc1)=N[C@@H](CC(=O)NCCSc1nc3ccccc3c3cc(CNC(=O)c4ccccc4OC(F)(F)F)nn13)c1nnc(C)n1-2 [Compound 2, (S)—N-((5-((2-(2-(4-(4-chlorophenyl)-2,3,9-trimethyl-6H-thieno[3,2-f][1,2,4]triazolo[4,3-a][1,4]diazepin-6-yl)acetamido)ethyl)thio)pyrazolo[1,5-c]quinazolin-2-yl)methyl)-2-(trifluoromethoxy) benzamide] | binding to UBE2K-Ub (UBE2K-Ub): All compounds except for Compound 2 bind
concentration dependent loss of BRD4 | Cc1sc2c(c1C)C(c1ccc(Cl)cc1)=N[C@@H](CC(=O)NCCOCCNC(=O)CSc1nc3ccccc3c3cc(CNC(=O)c4ccccc4OC(F)(F)F)nn13)c1nnc(C)n1-2 [Compound 7, (S)—N-((5-((2-((2-(2-(2-(4-(4-chlorophenyl)-2,3,9-trimethyl-6H-thieno[3,2-f][1,2,4]triazolo[4,3-a][1,4]diazepin-6-yl)acetamido)ethoxy)ethyl)amino)-2-oxoethyl)thio)pyrazolo[1,5-c]quinazolin-2-yl)methyl)-2-(trifluoromethoxy)benzamide] | 
concentration dependent loss of BRD4 | Cc1sc2c(c1C)C(c1ccc(Cl)cc1)=N[C@@H](CC(=O)NCCOCCOCCNC(=O)CSc1nc3ccccc3c3cc(CNC(=O)c4ccccc4OC(F)(F)F)nn13)c1nnc(C)n1-2 [Compound 9, (S)—N-((5-((14-(4-(4-chlorophenyl)-2,3,9-trimethyl-6H-thieno [3,2 f][1,2,4]triazolo [4,3-a][1,4]diazepin-6-yl)-2,13-dioxo-6,9-dioxa-3,12-diazatetradecyl)thio)pyrazolo[1,5-c]quinazolin-2-yl)methyl)-2-(trifluoromethoxy)benzamide] | 
